What follows are compounds tested on Meloidogyne incognita (assay: Test against Meloidogyne spp. (soil pot test)). Conditions: 672 h; 10 ppm in soil contaminated by Meloidogyne incognita; tomato (Kurihara), greenhouse 4 weeks; from root knot index; read-out: controlling effect.
Assay type: in vivo
Method: Test Against Meloidogyne spp. (Soil Pot Test)
Preparation of Test Agent:
1 Part of the active compound is impregnated to 99 parts of pumice to make fine granules.
A compound of the formula (I) was added to the soil contaminated by Meloidogyne incognita so that the chemical concentration would be 10 ppm and homogeneously mixed by stirring. A pot ( 1/5000 are) was filled with the soil. About 20 seeds of tomato (variety: Kurihara) were sown per pot. After cultivation in a greenhouse for 4 weeks, they were carefully pulled out not to damage the roots and the root knot index and the controlling effect were determined as follows.
1: A few knots were formed
2: Knots were formed to a medium extent
3: Knots were formed to an intense extent
4: Knots were formed to the most intense extent (corresponds to non-treatment). [formula]
Evaluation of the ability of the tested compounds to control the nematodes was done according to the values obtained for the controlling effect and with the following standards. […]
a: Controlling effect 100-71% b: Controlling effect 70-50% c: Controlling effect less than 50%

SMILES	pest or weed control at 10 ppm
FC(F)=C(F)CCSc1ncco1 [Compound 1, 2-(3,4,4-trifluoro-3-butenylthio)oxazole]	71 to 100%
[O-][S+](CCC(F)=C(F)F)c1ncco1 (centres unmarked) [Compound 2, 2-(3,4,4-trifluoro-3-butenylsulfinyl)oxazole]	71 to 100%
O=S(=O)(CCC(F)=C(F)F)c1ncco1 [Compound 3, 2-(3,4,4-trifluoro-3-butenylsulfonyl)oxazole]	71 to 100%
FC(F)=C(F)CCSc1ncc(Cl)o1 [Compound 4, 5-chloro-2-(3,4,4-trifluoro-3-butenylthio)oxazole]	71 to 100%
FC(F)=C(F)CCSc1nc(CBr)c(Br)o1 [Compound 39, 5-bromo-4-bromomethyl-2-(3,4,4-trifluoro-3-butenylthio)oxazole]	71 to 100%
COCc1cnc(SCCC(F)=C(F)F)o1 [Compound 46, 5-methoxymethyl-2-(3,4,4-trifluoro-3-butenylthio)oxazole]	71 to 100%
FC(F)=C(F)CCSc1nc(Cl)co1 [Compound 52, 4-chloro-2-(3,4,4-trifluoro-3-butenylthio)oxazole]	71 to 100%
OCc1coc(SCCC(F)=C(F)F)n1 [Compound 75, 4-hydroxymethyl-2-(3,4,4-trifluoro-3-butenylthio)oxazole]	71 to 100%
COCc1coc(SCCC(F)=C(F)F)n1 [Compound 78, 4-methoxymethyl-2-(3,4,4-trifluoro-3-butenylthio)oxazole]	71 to 100%
CSCc1coc(SCCC(F)=C(F)F)n1 [Compound 86, 4-methylthiomethyl-2-(3,4,4-trifluoro-3-butenylthio)oxazole]	71 to 100%
CS(=O)(=O)Oc1coc(SCCC(F)=C(F)F)n1 [Compound 127, 4-methylsulfonyloxy-2-(3,4,4-trifluoro-3-butenylthio)oxazole]	71 to 100%
